# Laboratory results taken from patent US20240261297A1, “ANTI-CDK INHIBITORS FOR CANCER TREATMENT” (St. John's Cancer Institute, priority 2021, published 2024).
# Assay: Snapshot plasma pharmacokinetics in mice
# Type: in vivo
# Conditions: mouse, in vivo; for AUC(0-inf): AUCinf
# Protocol: Evaluation of pharmacokinetic (PK) parameters and efficacy of I-3 in a xenograft model was carried out in mice. […] Briefly, mice were treated with 5 mg/kg of 1-3 or merioline-3. Plasma was then collected at different time points and measured for drug concentration. […] PK parameters of I-3 was also compared to a panel of CDK inhibitors (Table 13). […] Likewise, Ribociclib has a better Cmax than I-3, but it is primarily a CDK4/6 inhibitor.
structure (smiles),measurement,setting,value
"Nc1nccc(-c2c[nH]c3nccc(Oc4cccc(F)c4)c23)n1 [I-3, 4-(4-(3-fluorophenoxy)-1H-pyrrolo[2,3-b]pyridin-3-yl)pyrimidin-2-amine]",Tmax,,3.1 h
same,AUC(0-inf),,1870 ng·h/mL
same,Cmax,Cmax,483 ng/mL
same,Tmax,"iv, 5 mg/kg",0.0833 h
same,half-life,"iv, 5 mg/kg",1.15 h
same,AUC(0-inf),"iv, 5 mg/kg",3700 ng·h/mL
same,Cmax,"iv, 5 mg/kg, Cmax",5080 ng/mL
same,Cmax,"po, 5 mg/kg",178 ng/mL
same,Tmax,"po, 5 mg/kg",0.5 h
same,half-life,"po, 5 mg/kg",3.1 h
same,AUC(0-inf),"po, 5 mg/kg",1480 ng·h/mL
